We go through two compounds from patent US9517232B2, “Compounds for treatment of alzheimer's disease” (Medi Synergics, LLC, priority 2013, dated 2016).

Assay [1] addresses T1, Sigma1 (Homo sapiens, UniProt Q99720). Particulars: Data from Poster, CNS Summit (2013); cited from earlier work.
The next assay addresses M3 (Homo sapiens, UniProt P20309). Particulars: Data from Poster, CNS Summit (2013); cited from earlier work.
In assay [2] the target is T2, M2 (Homo sapiens, UniProt P08172).
T2 sequence (P08172 1-466): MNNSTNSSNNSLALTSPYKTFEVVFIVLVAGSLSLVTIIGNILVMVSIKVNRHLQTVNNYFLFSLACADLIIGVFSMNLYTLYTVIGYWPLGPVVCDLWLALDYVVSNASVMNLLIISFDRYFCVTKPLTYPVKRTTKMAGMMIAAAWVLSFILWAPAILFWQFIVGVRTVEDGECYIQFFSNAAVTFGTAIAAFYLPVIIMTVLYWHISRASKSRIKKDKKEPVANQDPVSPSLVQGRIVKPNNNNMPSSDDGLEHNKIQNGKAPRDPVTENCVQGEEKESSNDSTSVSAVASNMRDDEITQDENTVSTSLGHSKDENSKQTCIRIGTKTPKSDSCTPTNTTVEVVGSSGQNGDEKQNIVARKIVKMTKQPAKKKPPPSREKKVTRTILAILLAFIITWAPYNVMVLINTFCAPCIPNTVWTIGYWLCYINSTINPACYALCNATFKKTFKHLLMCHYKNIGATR
Particulars: Data from Poster, CNS Summit (2013); cited from earlier work.

Another assay concerns the target T3, M4 (Homo sapiens, UniProt P08173).
T3 sequence (P08173 1-479): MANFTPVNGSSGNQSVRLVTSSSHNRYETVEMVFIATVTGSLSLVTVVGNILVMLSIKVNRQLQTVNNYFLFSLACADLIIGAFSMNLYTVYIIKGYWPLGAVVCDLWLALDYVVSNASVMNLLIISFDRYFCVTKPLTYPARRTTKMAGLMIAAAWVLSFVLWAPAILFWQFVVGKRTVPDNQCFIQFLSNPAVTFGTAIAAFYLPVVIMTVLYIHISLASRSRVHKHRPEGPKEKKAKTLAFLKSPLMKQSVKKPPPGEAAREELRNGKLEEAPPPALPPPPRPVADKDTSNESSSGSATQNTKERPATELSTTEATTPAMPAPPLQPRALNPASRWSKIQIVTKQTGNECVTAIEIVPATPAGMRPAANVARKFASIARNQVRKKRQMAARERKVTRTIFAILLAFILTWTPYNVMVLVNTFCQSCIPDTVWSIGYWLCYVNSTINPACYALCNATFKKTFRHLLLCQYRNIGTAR
Conditions: Data from Poster, CNS Summit (2013); cited from earlier work.

The target in assay [3] is T4, M1 (Homo sapiens, UniProt P11229).
T4 sequence (P11229 1-460): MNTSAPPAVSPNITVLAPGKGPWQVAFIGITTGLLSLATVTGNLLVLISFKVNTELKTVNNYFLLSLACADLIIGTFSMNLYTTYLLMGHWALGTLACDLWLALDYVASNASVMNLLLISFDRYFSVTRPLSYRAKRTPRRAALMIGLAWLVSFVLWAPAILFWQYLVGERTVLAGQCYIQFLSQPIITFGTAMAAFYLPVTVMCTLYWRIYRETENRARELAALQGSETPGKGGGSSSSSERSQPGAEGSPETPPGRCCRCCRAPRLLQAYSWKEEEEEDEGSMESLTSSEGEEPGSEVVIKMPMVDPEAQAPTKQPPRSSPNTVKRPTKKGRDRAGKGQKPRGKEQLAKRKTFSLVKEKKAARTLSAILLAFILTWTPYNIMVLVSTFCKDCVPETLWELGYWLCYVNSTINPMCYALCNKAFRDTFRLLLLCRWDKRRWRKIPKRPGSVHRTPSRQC
Conditions: Data from Poster, CNS Summit (2013); cited from earlier work.

A further assay addresses T5, M5 (Homo sapiens, UniProt P08912).
T5 sequence (P08912 1-532): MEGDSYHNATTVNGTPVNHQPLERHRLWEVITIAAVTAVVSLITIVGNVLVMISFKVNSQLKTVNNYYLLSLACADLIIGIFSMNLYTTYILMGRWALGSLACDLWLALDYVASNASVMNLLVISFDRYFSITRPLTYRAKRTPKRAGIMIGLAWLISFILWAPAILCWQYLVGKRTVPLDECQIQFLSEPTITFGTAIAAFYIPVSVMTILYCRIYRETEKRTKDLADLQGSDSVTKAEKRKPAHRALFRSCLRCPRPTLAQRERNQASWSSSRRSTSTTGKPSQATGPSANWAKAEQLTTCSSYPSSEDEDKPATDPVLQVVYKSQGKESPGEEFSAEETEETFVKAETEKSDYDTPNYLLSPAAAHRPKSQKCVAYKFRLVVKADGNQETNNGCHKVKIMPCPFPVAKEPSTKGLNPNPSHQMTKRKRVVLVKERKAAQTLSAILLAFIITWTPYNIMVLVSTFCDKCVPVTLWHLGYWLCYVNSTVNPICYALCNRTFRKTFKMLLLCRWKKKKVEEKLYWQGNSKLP
Description: Muscarinic M5 receptor Ki determination (NIMH PDSP). It counts as binding. As to the method:
(§1) The compounds from the above Examples were tested for Sigma-1 and muscarinic M1-M5) activities. Ki determinations were generously provided by the National Institute of Mental Health's Psychoactive Drug Screening Program (PDSP), Contract #HHSN-271-2013-00017-C (NIMH PDSP). The NIMH PDSP is directed by Bryan L. Roth M D, PhD at the University of North Carolina at Chapel Hill and Project Officer Jamie Driscoll at NIMH, Bethesda Md., USA. Procedures employed by the PDSP are described in the NIMH PDSP Assay Protocol Book, Version II and follow published literature protocols.

Assay [4] deals with T1, Sigma1. As to the kind of experiment: Sigma-1 receptor Ki determination (NIMH PDSP). Type of assay: binding. The procedure: as §1
Assay [5] deals with T4, M1. Description: Muscarinic M1 receptor Ki determination (NIMH PDSP). It counts as binding. As to the method: as §1
The target of assay [6] is T2, M2. Description: Muscarinic M2 receptor Ki determination (NIMH PDSP). It counts as binding. As to the method: as §1

pKi: −log10 of the molar value. Where two headings read alike, the source gives them in different places.

T1 sequence (Q99720 whole entry): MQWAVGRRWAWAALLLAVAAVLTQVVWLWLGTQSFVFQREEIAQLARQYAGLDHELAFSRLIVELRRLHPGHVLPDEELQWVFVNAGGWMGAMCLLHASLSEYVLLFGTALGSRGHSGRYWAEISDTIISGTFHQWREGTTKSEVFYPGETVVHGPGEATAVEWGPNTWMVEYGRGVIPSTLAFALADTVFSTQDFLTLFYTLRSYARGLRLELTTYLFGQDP
M3, sequence (P20309 whole entry): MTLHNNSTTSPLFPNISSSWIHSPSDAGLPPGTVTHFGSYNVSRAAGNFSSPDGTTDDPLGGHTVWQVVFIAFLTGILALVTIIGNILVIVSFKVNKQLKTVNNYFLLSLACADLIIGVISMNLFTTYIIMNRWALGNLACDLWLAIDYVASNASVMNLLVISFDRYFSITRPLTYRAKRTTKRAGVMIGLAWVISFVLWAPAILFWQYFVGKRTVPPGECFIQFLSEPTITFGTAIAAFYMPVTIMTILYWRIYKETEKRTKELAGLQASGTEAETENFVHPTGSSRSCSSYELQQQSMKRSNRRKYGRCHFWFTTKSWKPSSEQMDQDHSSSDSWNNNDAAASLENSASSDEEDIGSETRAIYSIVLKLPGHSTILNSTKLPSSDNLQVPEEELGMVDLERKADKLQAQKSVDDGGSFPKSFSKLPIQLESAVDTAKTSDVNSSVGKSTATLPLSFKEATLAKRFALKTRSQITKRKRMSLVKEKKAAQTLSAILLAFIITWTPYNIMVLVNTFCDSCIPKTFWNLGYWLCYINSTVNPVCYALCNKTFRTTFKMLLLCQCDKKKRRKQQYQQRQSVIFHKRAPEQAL

On to `CN(C)CC1CCOC1(c1ccccc1)c1ccccc1` (stereo not drawn) [ANAVEX 2-73], for which the pKi (in general, −log10 of the Ki, conventionally taken in molar units) at Sigma1 [1] was 6.07; at M3, 5.27; at M2 [2], 5.40; on M4 it was 5.28; on M1 [3], 5.48.
As for `CN(CCCC1(c2ccc(F)cc2)OCc2cc(C#N)ccc21)C1=NCCCC1` (stereo not drawn) [Example 3, 1-(4-fluorophenyl)-1-{3-[methyl(3,4,5,6-tetrahydropyridin-2-yl)amino]propyl}-1,3-dihydro-2-benzo-furan-5-carbonitrile], the negative logarithm of the Ki (pKi) at M5 is 5.93; at Sigma1 [4], 6.64; at M1 [5], 5.82; at M2 [6], 5.59.
